{"source": "patent US20160058829A1", "about": "“ANTI-FIBROTIC PEPTIDES AND THEIR USE IN METHODS FOR TREATING DISEASES AND DISORDERS CHARACTERIZED BY FIBROSIS” (Thrasos Innovation, Inc., priority 2011, published 2016)", "system": "human proximal tubule epithelial cells (HK2)", "assay": "D-glucose-induced EMT assay, E-cadherin immunofluorescence with colorimetric image analysis", "type": "cell-based", "details": "0% = D-glucose untreated, 100% = media without D-glucose", "method": "Chronic hyperglycemia is a known cause of renal fibrosis in type 2 diabetes. The assay in this example induces the transdifferentiation from the epithelial to the mesenchymal phenotype (EMT) in human proximal tubule epithelial cells (HK2) by exposing them to high levels of D-glucose (100 mM and 200 mM). […] Exposure to 100 mM D-glucose results in the loss of E-cadherine expression as evidenced by the loss of the fluorescene signal. Using this assay test compounds are evaluated based on their ability to inhibit the EMT processes in the presence of high levels of D-glucose. FIGS. 4-16 are fluorescence micrographs of HK2 cells exposed to 100 mM D-glucose and 100 uM of SEQ IS NOs 1 through 11, respectively. Note that all but SEQ ID NOs 10 and 11 were able to preserve the epithelial phenotype (i.e., inhibit the EMT).\nResults are provided in the context of FIG. 1 and Table 3, below. In Table 3 below, compound response is scored using image analysis as described herein in the method of Methods and Materials, part C. A 0% response corresponds to the signal for 100 mM (or 200 mM) D-glucose (untreated) while the 100% response corresponds to the signal for media in the absence of D-glucose.\nIt has been shown that transdifferentiation of proximal tubular epithelial cells is a critical step in the development of renal fibrosis, and that this is associated with a loss of the epithelial phenotypic marker, E-cadherin expression. This provides the basis for the development of a cell-based screening assay in which high concentrations of D-Glucose (50-100 mM) are used to induce a loss of E-cadherin expression in human renal proximal tubular epithelial (HK-2) cells, and compounds are tested for their ability to reverse the loss E-cadherin expression.\nMaterials: • Human proximal tubular epithelial cells, HK-2 (ATCC #CRL-2190) • Serum-free keratinocyte medium (GIBCO #17005-042, K-SFM) • Epidermal growth factor (EGF: 5 ng/mL) • Bovine pituitary extract (BPE: 40 ug/mL) • Primary antibody, Mouse IgG anti-E-cadherin (R&D Systems # MAB1838) • BSA [Sigma #A7030] • secondary antibody, FITC-conjugated Goat anti-mouse IgG (Fab2) fragment (Sigma-Aldrich # F-2653) • Paraformaldehyde (10%)) • Triton X-100 (Sigma # T-9284) • PBS (Fisher Scientific #BP399-1) • D-PBS (Invitrogen #14190-144) • Polypropylene tips (Axygen, Inc. 0.5-10 uL, cat # T-300-L-R; 1-200 uL, Cat # T-200-L-R; 1-1000 uL, Cat # T-1000-C-L-R) • 50 mL polypropylene culture tubes (Fisher Scientific, cat #06-443-18) • 24-well Coster cell culture plates (Fisher Scientific #07-200-84)\nReagents & Test Samples: • Positive control: BMP-7, assayed at concentrations 0.1 and 1 ug/mL • Test compounds (peptides): each tested at final concentrations 100 uM and 200 uM.\nAssay Procedure for Cell Culture Assay: • Run assay in 24-well culture plates. • Seed HK-2 cells at a density between 25,000 and 30,000 cells per well in lmL K-SFM medium with supplements added (growth medium) • Incubate HK-2 cells for 24 hours at 37° C., and let cells attach the plate • Next Day afternoon, change the medium with K-SFM medium with no added supplements (serum free medium) in all wells except the first two control wells. • Continue incubating HK-2 cells overnight at 37° C. • Next Day, aspirate the medium from all wells. Incubate the cells in growth medium (first two control wells) or expose them to test compounds for 2 hours at 37° C. Final concentrations of each Test compound are 100 and 200 uM. BMP-7 serves as a positive control in the assay. • After incubation, add D-glucose to all wells except first two control wells. Final concentrations of D-Glucose are 50 and 100 mM. • Incubate HK-2 cells for 60 hours at 37° C. • Aspirate the medium from all wells. To the wells, add pre-warmed growth medium or serum free medium containing D-glucose alone or D-glucose and test compound or D-glucose and BMP-7. Final concentrations of D-Glucose and Test compound are the same as above. • Continue incubating HK-2 cells for 24 hours at 37° C. […]", "note": "Positions of bridges follow the written chain, without caps; N, C: chain ends. Non-standard residues stand in square brackets, D forms with d. *: point of attachment. Dap = NC[C@H](N)C(=O)O; For = O=C*"}
{"substance": "1 (H-CYFDDSSNVLCKKYRS-OH; disulfide 1-11; SMILES CC(C)C[C@@H]1NC(=O)[C@H](C(C)C)NC(=O)[C@H](CC(N)=O)NC(=O)[C@H](CO)NC(=O)[C@H](CO)NC(=O)[C@H](CC(=O)O)NC(=O)[C@H](CC(=O)O)NC(=O)[C@H](Cc2ccccc2)NC(=O)[C@H](Cc2ccc(O)cc2)NC(=O)[C@@H](N)CSSC[C@@H](C(=O)N[C@@H](CCCCN)C(=O)N[C@@H](CCCCN)C(=O)N[C@@H](Cc2ccc(O)cc2)C(=O)N[C@@H](CCCNC(=N)N)C(=O)N[C@@H](CO)C(=O)O)NC1=O) [compound 1]", "values": [{"measurement": "Percent inhibition of D-glucose-induced EMT", "setting": "100 uM peptide", "value": 125, "unit": "%"}, {"measurement": "Percent inhibition of D-glucose-induced EMT", "setting": "200 uM peptide", "value": 98, "unit": "%"}]}
{"substance": "2 (H-DYFDDSSNVL[Dap]KKYRS-OH; SMILES CC(C)C[C@H](NC(=O)[C@@H](NC(=O)[C@H](CC(N)=O)NC(=O)[C@H](CO)NC(=O)[C@H](CO)NC(=O)[C@H](CC(=O)O)NC(=O)[C@H](CC(=O)O)NC(=O)[C@H](Cc1ccccc1)NC(=O)[C@H](Cc1ccc(O)cc1)NC(=O)[C@@H](N)CC(=O)O)C(C)C)C(=O)N[C@@H](CN)C(=O)N[C@@H](CCCCN)C(=O)N[C@@H](CCCCN)C(=O)N[C@@H](Cc1ccc(O)cc1)C(=O)N[C@@H](CCCNC(=N)N)C(=O)N[C@@H](CO)C(=O)O) [compound 2]", "values": [{"measurement": "Percent inhibition of D-glucose-induced EMT", "setting": "100 uM peptide", "value": 167, "unit": "%"}, {"measurement": "Percent inhibition of D-glucose-induced EMT", "setting": "200 uM peptide", "value": 96, "unit": "%"}]}
{"substance": "3 (H-[Dap]YFDDSSNVLDKKYRS-OH; SMILES CC(C)C[C@H](NC(=O)[C@@H](NC(=O)[C@H](CC(N)=O)NC(=O)[C@H](CO)NC(=O)[C@H](CO)NC(=O)[C@H](CC(=O)O)NC(=O)[C@H](CC(=O)O)NC(=O)[C@H](Cc1ccccc1)NC(=O)[C@H](Cc1ccc(O)cc1)NC(=O)[C@@H](N)CN)C(C)C)C(=O)N[C@@H](CC(=O)O)C(=O)N[C@@H](CCCCN)C(=O)N[C@@H](CCCCN)C(=O)N[C@@H](Cc1ccc(O)cc1)C(=O)N[C@@H](CCCNC(=N)N)C(=O)N[C@@H](CO)C(=O)O) [compound 3]", "values": [{"measurement": "Percent inhibition of D-glucose-induced EMT", "setting": "100 uM peptide", "value": 67, "unit": "%"}, {"measurement": "Percent inhibition of D-glucose-induced EMT", "setting": "200 uM peptide", "value": 128, "unit": "%"}]}
{"substance": "4 (H-CYYDNSSSVLCKRYRS-OH; disulfide 1-11; not fully specified (residue 14)) [compound 4]", "values": [{"measurement": "Percent inhibition of D-glucose-induced EMT", "setting": "100 uM peptide", "value": 99, "unit": "%"}, {"measurement": "Percent inhibition of D-glucose-induced EMT", "setting": "200 uM peptide", "value": 130, "unit": "%"}]}
{"substance": "5 (H-CYYDNSSSVLCKRYRS-OH; disulfide 1-11; SMILES CC(C)C[C@@H]1NC(=O)[C@H](C(C)C)NC(=O)[C@H](CO)NC(=O)[C@H](CO)NC(=O)[C@H](CO)NC(=O)[C@H](CC(N)=O)NC(=O)[C@H](CC(=O)O)NC(=O)[C@H](Cc2ccc(O)cc2)NC(=O)[C@H](Cc2ccc(O)cc2)NC(=O)[C@@H](N)CSSC[C@@H](C(=O)N[C@@H](CCCCN)C(=O)N[C@@H](CCCNC(=N)N)C(=O)N[C@@H](Cc2ccc(O)cc2)C(=O)N[C@@H](CCCNC(=N)N)C(=O)N[C@@H](CO)C(=O)O)NC1=O) [compound 5]", "values": [{"measurement": "Percent inhibition of D-glucose-induced EMT", "setting": "100 uM peptide", "value": 33, "unit": "%"}, {"measurement": "Percent inhibition of D-glucose-induced EMT", "setting": "200 uM peptide", "value": 84, "unit": "%"}]}
{"substance": "6 (For-CYYDNSSSVLCKRYRS-OH; disulfide 1-11; SMILES CC(C)C[C@@H]1NC(=O)[C@H](C(C)C)NC(=O)[C@H](CO)NC(=O)[C@H](CO)NC(=O)[C@H](CO)NC(=O)[C@H](CC(N)=O)NC(=O)[C@H](CC(=O)O)NC(=O)[C@H](Cc2ccc(O)cc2)NC(=O)[C@H](Cc2ccc(O)cc2)NC(=O)[C@@H](NC=O)CSSC[C@@H](C(=O)N[C@@H](CCCCN)C(=O)N[C@@H](CCCNC(=N)N)C(=O)N[C@@H](Cc2ccc(O)cc2)C(=O)N[C@@H](CCCNC(=N)N)C(=O)N[C@@H](CO)C(=O)O)NC1=O) [compound 6]", "values": [{"measurement": "Percent inhibition of D-glucose-induced EMT", "setting": "100 uM peptide", "value": 88, "unit": "%"}, {"measurement": "Percent inhibition of D-glucose-induced EMT", "setting": "200 uM peptide", "value": 109, "unit": "%"}]}
{"substance": "7 (Ac-CYYDNSSSVLCKRYRS-OH; disulfide 1-11; SMILES CC(=O)N[C@H]1CSSC[C@@H](C(=O)N[C@@H](CCCCN)C(=O)N[C@@H](CCCNC(=N)N)C(=O)N[C@@H](Cc2ccc(O)cc2)C(=O)N[C@@H](CCCNC(=N)N)C(=O)N[C@@H](CO)C(=O)O)NC(=O)[C@H](CC(C)C)NC(=O)[C@H](C(C)C)NC(=O)[C@H](CO)NC(=O)[C@H](CO)NC(=O)[C@H](CO)NC(=O)[C@H](CC(N)=O)NC(=O)[C@H](CC(=O)O)NC(=O)[C@H](Cc2ccc(O)cc2)NC(=O)[C@H](Cc2ccc(O)cc2)NC1=O) [compound 7]", "values": [{"measurement": "Percent inhibition of D-glucose-induced EMT", "setting": "100 uM peptide", "value": 65, "unit": "%"}, {"measurement": "Percent inhibition of D-glucose-induced EMT", "setting": "200 uM peptide", "value": 103, "unit": "%"}]}
